Experimental findings from US9822130B2, “Triazolo-pyrazinyl derivatives useful as soluble guanylate cyclase activators” (Merck Sharp & Dohme Corp., priority 2014, dated 2017) are described below.

The target of one assay is T1, sGC α1/β1 heterodimer stably expressed in CHO-K1 cell line (CHO-K1/sGC) (Homo sapiens, UniProt Q02108+Q02153).
T1 construct: expressed in transfected cells
T1 sequence (Q02108 1-690): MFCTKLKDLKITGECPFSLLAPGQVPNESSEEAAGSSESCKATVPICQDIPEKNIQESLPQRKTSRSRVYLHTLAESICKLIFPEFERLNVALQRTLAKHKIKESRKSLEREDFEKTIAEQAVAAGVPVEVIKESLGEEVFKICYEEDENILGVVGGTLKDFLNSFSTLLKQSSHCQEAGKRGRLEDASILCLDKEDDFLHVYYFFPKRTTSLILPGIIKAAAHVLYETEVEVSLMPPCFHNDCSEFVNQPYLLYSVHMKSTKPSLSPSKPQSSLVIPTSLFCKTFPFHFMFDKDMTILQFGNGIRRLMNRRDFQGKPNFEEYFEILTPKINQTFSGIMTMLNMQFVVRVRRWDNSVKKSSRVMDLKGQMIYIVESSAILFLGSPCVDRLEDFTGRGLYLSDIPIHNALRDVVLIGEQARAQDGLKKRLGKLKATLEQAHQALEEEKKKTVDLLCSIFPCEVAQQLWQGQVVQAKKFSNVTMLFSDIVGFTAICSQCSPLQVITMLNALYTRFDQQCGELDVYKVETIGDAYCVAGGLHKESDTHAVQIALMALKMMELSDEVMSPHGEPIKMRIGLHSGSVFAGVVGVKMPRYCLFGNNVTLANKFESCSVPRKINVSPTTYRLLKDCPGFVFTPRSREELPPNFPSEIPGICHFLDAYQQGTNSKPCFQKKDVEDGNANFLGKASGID
T1 sequence (Q02153 1-619): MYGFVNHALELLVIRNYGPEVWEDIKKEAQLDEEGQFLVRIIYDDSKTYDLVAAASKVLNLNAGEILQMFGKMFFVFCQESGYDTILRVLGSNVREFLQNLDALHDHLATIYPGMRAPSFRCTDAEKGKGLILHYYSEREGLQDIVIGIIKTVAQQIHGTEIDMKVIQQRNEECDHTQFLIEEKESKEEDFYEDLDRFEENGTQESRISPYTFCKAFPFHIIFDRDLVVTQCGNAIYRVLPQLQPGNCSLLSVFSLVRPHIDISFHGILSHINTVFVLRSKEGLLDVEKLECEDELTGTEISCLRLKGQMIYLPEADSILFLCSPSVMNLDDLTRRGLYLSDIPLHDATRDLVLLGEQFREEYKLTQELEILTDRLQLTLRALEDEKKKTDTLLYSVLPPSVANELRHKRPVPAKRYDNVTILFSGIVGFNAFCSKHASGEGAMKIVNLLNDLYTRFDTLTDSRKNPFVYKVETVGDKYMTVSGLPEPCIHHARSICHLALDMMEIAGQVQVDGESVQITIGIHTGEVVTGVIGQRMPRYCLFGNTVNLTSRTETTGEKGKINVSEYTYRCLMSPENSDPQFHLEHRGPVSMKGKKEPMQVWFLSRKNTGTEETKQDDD
As to the kind of experiment: Cell-based sGC Functional Assay (CASA Assay), cGMP generation. Conditions: CHO-K1/sGC cells, 1 hr at 37° C., cGMP by HTRF, 4P fit; presence or absence of 1 μM DETA-NO not given; read-out: IP (nM) (inflection point). The method, boiled down: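 CHO-K1 cells stably expressing human sGC α1/β1 (4×10^5/mL, 0.5 mM IBMX) were treated with compounds (2.5% DMSO final) ± 1 μM DETA-NO for 1 hr at 37° C. Intracellular cGMP measured by HTRF. Activity expressed as % of Compound A maximal cGMP; IP and maximum fold induction from 4P fit.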
On to `Nc1nc(-c2cn3ncnc3c(CCC(F)(F)C(F)(F)F)n2)nc2c1C(c1ccc(C(F)(F)F)cn1)(C1CC1)C(=O)N2` (stereo not drawn) [Example 15A, 4-amino-5-cyclopropyl-2-(8-(3,3,4,4,4-pentafluorobutyl)-[1,2,4]triazolo[1,5-a]pyrazin-6-yl)-5-(5-(trifluoromethyl)pyridin-2-yl)-5H-pyrrolo[2,3-d]pyrimidin-6(7H)-one], for which the EC50 amounted to 316 nM.

`CC1(c2ccc(C(F)(F)F)cc2)C(=O)Nc2nc(-c3cn4ncnc4c(CCCC(F)(F)F)n3)nc(O)c21` (stereo not drawn) [Example 137B, 4-hydroxy-5-methyl-2-(8-(4,4,4-trifluorobutyl)-[1,2,4]triazolo[1,5-a]pyrazin-6-yl)-5-(4-(trifluoromethyl)phenyl)-5H-pyrrolo[2,3-d]pyrimidin-6(7H)-one]: the EC50 was 597 nM.

Consider `Nc1nc(-c2cn3ncnc3c(CCC(F)(F)F)n2)nc2c1C(c1ccc(Cl)cn1)(C1CC1)C(=O)N2` (stereo not drawn) [Example 82A, 4-amino-5-(5-chloropyridin-2-yl)-5-cyclopropyl-2-(8-(3,3,3-trifluoropropyl)-[1,2,4]triazolo[1,5-a]pyrazin-6-yl)-5H-pyrrolo[2,3-d]pyrimidin-6(7H)-one], for which the EC50 amounted to 555 nM.

With `Nc1nc(-c2cn3ncnc3c(CCCC(F)(F)F)n2)nc2c1C(c1ncc(Cl)cn1)(C1CC1)C(=O)N2` (stereo not drawn) [Example 41A, 4-amino-5-(5-chloropyrimidin-2-yl)-5-cyclopropyl-2-(8-(4,4,4-trifluorobutyl)-[1,2,4]triazolo[1,5-a]pyrazin-6-yl)-5H-pyrrolo[2,3-d]pyrimidin-6(7H)-one], the EC50 is 27.8 nM.

Turning to `Nc1nc(-c2cn3ncnc3c(CCCC(F)(F)F)n2)nc2c1C(c1ncc(C(F)(F)F)cn1)(C1CC1)C(=O)N2` (single isomer, unassigned) [Example 180B, 4-amino-5-cyclopropyl-2-(8-(4,4,4-trifluorobutyl)-[1,2,4]triazolo[1,5-a]pyrazin-6-yl)-5-(5-(trifluoromethyl)pyrimidin-2-yl)-5,7-dihydro-6H-pyrrolo[2,3-d]pyrimidin-6-one], the EC50 is 488 nM.

For the molecule `CC1(c2ccc(Cl)cc2)C(=O)Nc2nc(-c3cn4ncnc4c(CCC(F)(F)C(F)(F)F)n3)nc(O)c21` (stereo not drawn) [Example 126A, 5-(4-chlorophenyl)-4-hydroxy-5-methyl-2-(8-(3,3,4,4,4-pentafluorobutyl)-[1,2,4]triazolo[1,5-a]pyrazin-6-yl)-5H-pyrrolo[2,3-d]pyrimidin-6(7H)-one], the EC50 was 132 nM.

In the case of `CC(C)Cc1nc(-c2ncc3c(n2)NC(=O)[C@@]3(C)c2ccc(F)cc2)cn2ncnc12` [Example 173A, (S)-5-(4-fluorophenyl)-2-(8-isobutyl-[1,2,4]triazolo[1,5-a]pyrazin-6-yl)-5-methyl-5,7-dihydro-6H-pyrrolo[2,3-d]pyrimidin-6-one], the EC50 came out at 574 nM.

For `CCCc1nc(-c2nc(N)c3c(n2)NC(=O)C3(C)c2ccc(F)cn2)cn2ncnc12` (stereo not drawn) [Example 54B, 4-amino-5-(5-fluoropyridin-2-yl)-5-methyl-2-(8-propyl-[1,2,4]triazolo[1,5-a]pyrazin-6-yl)-5H-pyrrolo[2,3-d]pyrimidin-6(7H)-one], the EC50 is 318 nM.

Turning to `CCCCc1nc(-c2nc(O)c3c(n2)NC(=O)[C@@]3(C)c2ccc(F)cc2)cn2ncnc12` [Example 154A, (S)-2-(8-butyl-[1,2,4]triazolo[1,5-a]pyrazin-6-yl)-5-(4-fluorophenyl)-4-hydroxy-5-methyl-5,7-dihydro-6H-pyrrolo[2,3-d]pyrimidin-6-one], the EC50 was 27.2 nM.

Regarding `CC(C)n1cc(C2(C)C(=O)Nc3nc(-c4cn5ncnc5c(CCC(F)(F)C(F)(F)F)n4)nc(N)c32)nn1` (stereo not drawn) [Example 20A, 4-amino-5-(1-isopropyl-1H-1,2,3-triazol-4-yl)-5-methyl-2-(8-(3,3,4,4,4-pentafluorobutyl)-[1,2,4]triazolo[1,5-a]pyrazin-6-yl)-5H-pyrrolo[2,3-d]pyrimidin-6(7H)-one], the EC50 was determined as 176 nM.

As to `CCCCc1nc(-c2nc(O)c3c(n2)NC(=O)C3(C)c2cccc(F)c2)cn2ncnc12` (stereo not drawn) [Example 171A, 2-(8-Butyl-[1,2,4]triazolo[1,5-a]pyrazin-6-yl)-5-(3-fluorophenyl)-4-hydroxy-5-methyl-5,7-dihydro-6H-pyrrolo[2,3-d]pyrimidin-6-one], the EC50 turned out to be 137 nM.

For `CC1(c2ccc(Cl)c(F)c2)C(=O)Nc2nc(-c3cn4ncnc4c(CCC(F)(F)F)n3)nc(O)c21` (stereo not drawn) [Example 153B, 5-(4-chloro-3-fluorophenyl)-4-hydroxy-5-methyl-2-(8-(3,3,3-trifluoropropyl)-[1,2,4]triazolo[1,5-a]pyrazin-6-yl)-5H-pyrrolo[2,3-d]pyrimidin-6(7H)-one], the EC50 was 310 nM.

On to `CC(F)(F)c1ccc(C2(C)C(=O)Nc3nc(-c4cn5ncnc5c(CCCC(F)(F)F)n4)nc(N)c32)cn1` (racemic) [Example 45B, 4-amino-5-(6-(1,1-difluoroethyl)pyridin-3-yl)-5-methyl-2-(8-(4,4,4-trifluorobutyl)-[1,2,4]triazolo[1,5-a]pyrazin-6-yl)-5H-pyrrolo[2,3-d]pyrimidin-6(7H)-one], for which the EC50 turned out to be 44.2 nM.

With `Nc1nc(-c2cn3ncnc3c(CCCC(F)(F)F)n2)nc2c1C(c1nnc(C(F)(F)F)o1)(C1CC1)C(=O)N2` (stereo not drawn) [Example 106A, 4-amino-5-cyclopropyl-2-(8-(4,4,4-trifluorobutyl)-[1,2,4]triazolo[1,5-a]pyrazin-6-yl)-5-(5-(trifluoromethyl)-1,3,4-oxadiazol-2-yl)-5H-pyrrolo[2,3-d]pyrimidin-6(7H)-one], the EC50 was 15.5 nM.

In the case of `CCCCc1nc(-c2nc(N)c3c(n2)NC(=O)C3(c2ccc(Cl)cn2)C2CC2)cn2ncnc12` (stereo not drawn) [Example 68A, 4-amino-2-(8-butyl-[1,2,4]triazolo[1,5-a]pyrazin-6-yl)-5-(5-chloropyridin-2-yl)-5-cyclopropyl-5H-pyrrolo[2,3-d]pyrimidin-6(7H)-one], the EC50 was 18.7 nM.

With `CCCc1nc(-c2nc(N)c3c(n2)NC(=O)C3(C)c2ccc(Cl)cc2)cn2ncnc12` (stereo not drawn) [Example 53A, 4-amino-5-(4-chlorophenyl)-5-methyl-2-(8-propyl-[1,2,4]triazolo[1,5-a]pyrazin-6-yl)-5H-pyrrolo[2,3-d]pyrimidin-6(7H)-one], the EC50 was 26.9 nM.

`COc1ccc(C2(C3CC3)C(=O)Nc3nc(-c4cn5ncnc5c(CCCC(F)(F)F)n4)nc(N)c32)nc1` (stereo not drawn) [Example 39A, 4-amino-5-cyclopropyl-5-(5-methoxypyridin-2-yl)-2-(8-(4,4,4-trifluorobutyl)-[1,2,4]triazolo[1,5-a]pyrazin-6-yl)-5H-pyrrolo[2,3-d]pyrimidin-6(7H)-one]: the EC50 was determined as 20.1 nM.

Consider `CC1(c2nnc(C(F)(F)F)o2)C(=O)Nc2nc(-c3cn4ncnc4c(CCCC(F)(F)F)n3)nc(N)c21` (stereo not drawn) [Example 101A, 4-amino-5-methyl-2-(8-(4,4,4-trifluorobutyl)-[1,2,4]triazolo[1,5-a]pyrazin-6-yl)-5-(5-(trifluoromethyl)-1,3,4-oxadiazol-2-yl)-5H-pyrrolo[2,3-d]pyrimidin-6(7H)-one], for which the EC50 came to 121 nM.

Take `CCCCc1nc(-c2nc(N)c3c(n2)NC(=O)C3(c2ccccn2)C2CC2)cn2ncnc12` (stereo not drawn) [Example 116A, 4-amino-2-(8-butyl-[1,2,4]triazolo[1,5-a]pyrazin-6-yl)-5-cyclopropyl-5-(pyridin-2-yl)-5H-pyrrolo[2,3-d]pyrimidin-6(7H)-one]: the EC50 came out at 19.7 nM.

The assay is the same for the next values; noted with them: CHO-K1/sGC cells, 1 hr at 37° C., cGMP by HTRF; presence or absence of 1 μM DETA-NO not given; read-out: % Act. (percent activation relative to maximum cGMP production of Compound A = 100%).
As for `CCCCc1nc(-c2nc(O)c3c(n2)NC(=O)[C@@]3(C)c2ccc(F)cc2)cn2ncnc12` [Example 154A, (S)-2-(8-butyl-[1,2,4]triazolo[1,5-a]pyrazin-6-yl)-5-(4-fluorophenyl)-4-hydroxy-5-methyl-5,7-dihydro-6H-pyrrolo[2,3-d]pyrimidin-6-one], the Emax is 100%.

With `CCCCc1nc(-c2nc(O)c3c(n2)NC(=O)C3(C)c2cccc(F)c2)cn2ncnc12` (stereo not drawn) [Example 171A, 2-(8-Butyl-[1,2,4]triazolo[1,5-a]pyrazin-6-yl)-5-(3-fluorophenyl)-4-hydroxy-5-methyl-5,7-dihydro-6H-pyrrolo[2,3-d]pyrimidin-6-one], the Emax was 90%.
